# Experimental data from US20060189608A1, “Methods for treating ocular angiogenesis, retinal edema, retinal ischemia, and diabetic retinopathy using selective RTK inhibitors” (Alcon, Inc., priority 2005, published 2006).
# What was measured:
# IGFR = IGFR (Homo sapiens, UniProt P08069); assay: Kinase inhibition profile, non-related TK; format: biochemical; conditions: ATP concentration of 1 nM
# [1] = system: diabetes-induced retinal vascular permeability; assay: Diabetes-induced retinal vascular permeability, oral gavage, STZ rat model
# Procedure: METHODS: Diabetes was induced in male Long-Evans rats with 65 mg/kg streptozotocin (STZ) after an overnight fast. […] After 2 weeks, jugular vein catheters were implanted 1 day prior to experimentation for the infusion of indicator dye. Retinal vascular permeability, RVP, was measured using Evan's blue albumin permeation (45 mg/kg) after a 2 hour circulation period.
# [2] = system: laser-induced choroidal neovascularization (CNV); assay: Laser-induced CNV, oral gavage, prevention paradigm, mouse; format: in vivo; conditions: for inhibition of CNV: prevention paradigm; for Mean CNV / Median CNV: prevention
# Procedure: Methods. CNV was generated by laser-induced rupture of Bruch's membrane. Briefly, 4 to 5 week old male C57BL/6J mice were anesthetized using intraperitoneal administration of ketamine hydrochloride (100 mg/kg) and xylazine (5 mg/kg) and the pupils of both eyes dilated with topical ocular instillation of 1% tropicamide and 2.5% Mydfin®. One drop of topical cellulose (Gonioscopic®) was used to lubricate the cornea. A hand-held cover slip was applied to the cornea and used as a contact lens to aid visualization of the fundus. Three to four retinal burns were placed in randomly assigned eye (right or left eye for each mouse) using the Alcon 532 nm EyeLite laser with a slit 5 lamp delivery system. The laser burns were used to generate a rupture in Bruch's membrane, which was indicated ophthalmoscopically by the formation of a bubble under the retina. Only mice with laser burns that produced three bubbles per eye were included in the study. Bums were typically placed at the 3, 6, 9 or 12 o'clock positions in the posterior pole of the retina, avoiding the branch retinal arteries and veins.
# Each mouse was randomly assigned into one of the following treatment groups: noninjected controls, sham-injected controls, vehicle-injected mice, or one of three RTKi-injected groups. Control mice received laser photocoagulation in both eyes, where one eye received a sham injection, i.e. a pars plana needle puncture. […] The intravitreal injection was performed immediately after laser photocoagulation. At 14 days post-laser, all mice were anesthetized and systemically perfused with fluorescein-labeled dextran. Eyes were then harvested and prepared as choroidal flat mounts with the RPE side oriented towards the observer. All choroidal flat mounts were examined using a fluorescent microscope. Digital images of the CNV were captured, where the CNV was identified as areas of hyperfluorescence within the pigmented background. Computerized image analysis was used to delineate and measure the two dimensional area of the hyperfluorescent CNV per lesion (um^2) for the outcome measurement. The median CNV area/burn per mouse per treatment group or the mean CNV area/burn per treatment group was used for statistical analysis depending on the normality of data distribution; P≦0.05 was considered significant.
# METHODS: CNV was generated by laser-induced rupture of Bruch's membrane as described in Example 3 above. […] The mice received an oral gavage of 0, 1.5, 5, or 10 mg/kg twice per day and for 14 days post-laser. […] Oral gavage dosing was continued twice per day for 14 days post-laser. Several mice were Is euthanized at day 7 post-laser and used for controls. At 14 days post-laser, all mice were anesthetized and systemically perfused with fluorescein-labeled dextran. Eyes were then harvested and prepared as choroidal flat mounts as described in Example 3 above.
# rat OIR model = assay: Preretinal neovascularization, rat OIR model, oral gavage; format: in vivo, Sprague-Dawley rats; conditions: for % Inhibition (vs vehicle-injected eye): preretinal NV
# Procedure: Immediately following euthanasia, retinas from all rat pups were harvested, fixed in 10% neutral buffered formalin for 24 hours, subjected to ADPase staining, and fixed onto slides as whole mounts. Digital images were acquired from each retinal flat mount that was adequately prepared. Computerized image analysis was used to obtain a NV clockhour score from each readable sample. Each clockhour out of 12 total per retina was assessed for the presence or absence of preretinal NV. Statistical comparisons using median scores for NV clockhours from each treatment group were utilized in nonparametric analyses. Each noninjected pup represented one NV score by taking the average value of both eyes and was used in comparisons against each dosage group. Because the pups were randomly assigned and no difference was observed between oxygen-exposed control pups from all litters, the NV scores were combined for all treatment groups. P≦0.05 was considered statistically significant.
# METHODS: Pregnant Sprague-Dawley rats were received at 14 days gestation and subsequently gave birth on Day 22±1 of gestation. Immediately following parturition, pups were pooled and randomized into separate litters (n=17 pups/litter), placed into separate shoebox cages inside oxygen delivery chamber, and subjected to an oxygen-exposure profile from Day 0 to Day 14 postpartum. Litters were then placed into room air from Day 14/0 through Day 14/6 (days 14-20 postpartum). Additionally on Day 14/0, each pup was randomly assigned as oxygen-exposed controls, vehicle treated, or drug-treated at 1.5, 5, 10 mg/kg, p.o., BID. At Day 14/6 (20 days postpartum), all animals in both studies were euthanized and retina whole mounts were prepared as described in Example 1 above.
# FYN = FYN (Homo sapiens, UniProt P06241); assay: Kinase inhibition profile, non-related TK; format: biochemical; conditions: ATP concentration of 1 nM
# LYN = LYN (Homo sapiens, UniProt P07948); assay: Kinase inhibition profile, non-related TK; format: biochemical; conditions: ATP concentration of 1 nM
# LYN, sequence (P07948 whole entry): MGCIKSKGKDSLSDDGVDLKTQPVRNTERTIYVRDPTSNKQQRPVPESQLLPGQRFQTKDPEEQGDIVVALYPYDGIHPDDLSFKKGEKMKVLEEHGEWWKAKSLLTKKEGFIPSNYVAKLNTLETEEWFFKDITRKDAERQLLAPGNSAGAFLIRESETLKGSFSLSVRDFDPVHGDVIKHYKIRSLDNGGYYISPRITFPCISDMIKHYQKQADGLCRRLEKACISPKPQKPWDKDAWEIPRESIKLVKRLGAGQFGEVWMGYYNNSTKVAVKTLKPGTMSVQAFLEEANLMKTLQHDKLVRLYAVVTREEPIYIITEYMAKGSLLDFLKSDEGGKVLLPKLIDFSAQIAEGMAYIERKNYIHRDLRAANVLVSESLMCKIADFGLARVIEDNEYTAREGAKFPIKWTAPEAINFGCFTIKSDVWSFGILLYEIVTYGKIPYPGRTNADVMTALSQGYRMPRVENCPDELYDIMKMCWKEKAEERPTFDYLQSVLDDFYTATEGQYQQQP
# IGFR, sequence (P08069 31-1367): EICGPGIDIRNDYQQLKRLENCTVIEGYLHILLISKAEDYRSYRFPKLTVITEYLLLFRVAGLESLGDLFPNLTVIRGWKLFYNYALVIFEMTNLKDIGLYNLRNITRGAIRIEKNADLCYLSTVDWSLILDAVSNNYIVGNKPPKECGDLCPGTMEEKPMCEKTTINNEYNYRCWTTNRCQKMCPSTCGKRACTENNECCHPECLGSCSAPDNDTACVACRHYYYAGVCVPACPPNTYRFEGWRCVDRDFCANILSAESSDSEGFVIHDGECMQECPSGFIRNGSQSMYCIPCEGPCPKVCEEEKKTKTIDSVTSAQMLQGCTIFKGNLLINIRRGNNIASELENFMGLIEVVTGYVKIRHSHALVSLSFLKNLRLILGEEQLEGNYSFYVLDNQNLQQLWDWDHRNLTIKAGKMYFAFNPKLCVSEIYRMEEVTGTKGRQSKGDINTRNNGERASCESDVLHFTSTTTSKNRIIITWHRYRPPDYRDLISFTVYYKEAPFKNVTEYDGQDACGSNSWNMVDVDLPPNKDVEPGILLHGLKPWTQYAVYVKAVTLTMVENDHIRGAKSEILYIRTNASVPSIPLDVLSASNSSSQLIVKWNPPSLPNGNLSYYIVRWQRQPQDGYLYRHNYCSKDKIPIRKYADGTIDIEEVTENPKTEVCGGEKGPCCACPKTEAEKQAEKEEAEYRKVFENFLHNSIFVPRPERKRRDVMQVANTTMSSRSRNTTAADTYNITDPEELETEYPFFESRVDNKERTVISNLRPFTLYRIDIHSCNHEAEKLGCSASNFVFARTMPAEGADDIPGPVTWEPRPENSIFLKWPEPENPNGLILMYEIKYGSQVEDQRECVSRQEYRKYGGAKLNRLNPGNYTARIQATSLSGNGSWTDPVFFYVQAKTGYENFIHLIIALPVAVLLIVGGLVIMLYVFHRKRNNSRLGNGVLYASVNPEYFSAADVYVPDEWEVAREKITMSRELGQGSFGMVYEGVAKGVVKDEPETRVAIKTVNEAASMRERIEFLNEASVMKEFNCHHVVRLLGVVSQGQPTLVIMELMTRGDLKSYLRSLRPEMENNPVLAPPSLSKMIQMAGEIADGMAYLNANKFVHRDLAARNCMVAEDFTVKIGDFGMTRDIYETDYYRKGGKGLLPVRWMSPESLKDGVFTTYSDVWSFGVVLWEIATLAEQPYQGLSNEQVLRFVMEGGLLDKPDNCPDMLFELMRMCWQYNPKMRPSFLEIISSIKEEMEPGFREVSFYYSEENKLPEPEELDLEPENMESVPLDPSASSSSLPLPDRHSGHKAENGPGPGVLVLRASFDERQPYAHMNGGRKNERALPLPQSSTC
# FYN, sequence (P06241 whole entry): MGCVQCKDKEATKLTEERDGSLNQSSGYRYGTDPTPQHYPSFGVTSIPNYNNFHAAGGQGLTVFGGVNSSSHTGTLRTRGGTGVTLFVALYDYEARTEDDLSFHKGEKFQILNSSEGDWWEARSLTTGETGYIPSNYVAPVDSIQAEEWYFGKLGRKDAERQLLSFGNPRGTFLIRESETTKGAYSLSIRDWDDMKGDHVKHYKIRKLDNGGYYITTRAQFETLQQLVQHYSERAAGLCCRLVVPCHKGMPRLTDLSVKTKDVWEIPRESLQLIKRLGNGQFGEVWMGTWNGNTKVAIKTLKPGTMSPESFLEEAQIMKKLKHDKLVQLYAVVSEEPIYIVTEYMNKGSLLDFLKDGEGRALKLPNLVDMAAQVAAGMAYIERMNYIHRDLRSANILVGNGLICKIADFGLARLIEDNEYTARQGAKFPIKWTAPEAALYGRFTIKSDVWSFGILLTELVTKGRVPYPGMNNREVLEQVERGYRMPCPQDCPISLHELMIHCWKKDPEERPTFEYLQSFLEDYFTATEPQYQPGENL
compound,measurement,setting,value
"Cc1ccc(F)c(NC(=O)Nc2ccc(-c3cccc4[nH]nc(N)c34)cc2)c1 [AL-39324, N-[4-[3-amino-1H-indazol-4-yl)phenyl]-N′-(2-fluoro-5-methylphenyl)urea]",IC50,IGFR,> 50 µM
same,RVP,[1]; NDM treated at 5 mg/kg/d,unchanged
same,"Blood glucose levels and body weights, DM control vs DM treatment groups","[1]; oral, DM rats",not different
same,"tolerability, systemic or ERG side effects","[1]; oral, NDM and DM groups",well tolerated by both NDM and DM groups with no observed systemic or ERG side effects
same,inhibition of CNV,[2]; 3 mg/kg/day oral gavage,no significant inhibition
same,Mean CNV,[2]; 3 mg/kg/day oral,21670 μm^2
same,Median CNV,[2]; 3 mg/kg/day oral,22317 μm^2
same,inhibition of CNV,[2]; 10 mg/kg/day oral gavage,84.3%
same,Mean CNV,[2]; 10 mg/kg/day oral,4046 μm^2
same,Median CNV,[2]; 10 mg/kg/day oral,4137 μm^2
same,inhibition of CNV,[2]; 20 mg/kg/d oral gavage,complete inhibition of CNV
same,Mean CNV,[2]; 20 mg/kg/day oral,3266 μm^2
same,Median CNV,[2]; 20 mg/kg/day oral,0 μm^2
same,Median NV,"rat OIR model; 3 mg/kg in PEG 400, p.o.",7.5
same,NV Range,"rat OIR model; 3 mg/kg in PEG 400, p.o.",3.8-9.8
same,% Inhibition (vs vehicle-injected eye),"rat OIR model; 3 mg/kg in PEG 400, p.o. (per day, BID)",−1.4%
same,decrease in NV,rat OIR model; 3 mg/kg/day p.o.,did not have a significant decrease in NV
same,Median NV,"rat OIR model; 10 mg/kg in PEG 400, p.o.",1.105
same,NV Range,"rat OIR model; 10 mg/kg in PEG 400, p.o.",0-8
same,% Inhibition (vs vehicle-injected eye),"rat OIR model; 10 mg/kg in PEG 400, p.o. (per day, BID)",86.4%
same,Median NV,"rat OIR model; 20 mg/kg in PEG 400, p.o.",0
same,NV Range,"rat OIR model; 20 mg/kg in PEG 400, p.o.",0
same,% Inhibition (vs vehicle-injected eye),"rat OIR model; 20 mg/kg in PEG 400, p.o. (per day, BID)",100%
same,inhibition of preretinal NV,rat OIR model; 20 mg/kg/day p.o.,complete inhibition of preretinal NV
same,IC50,FYN,> 50 µM
same,IC50,LYN,> 20 µM
